One experiment deals with h5-HT2A (Homo sapiens, UniProt P28223). In words: biochemical. In kind it is binding. The arrangement: expressed in transfected cells; host or cells: HEK 293 cells (membrane preparation).
The target in a further experiment is T1, h5-HT2C (Homo sapiens, UniProt P28335).
T1 sequence (P28335 33-458): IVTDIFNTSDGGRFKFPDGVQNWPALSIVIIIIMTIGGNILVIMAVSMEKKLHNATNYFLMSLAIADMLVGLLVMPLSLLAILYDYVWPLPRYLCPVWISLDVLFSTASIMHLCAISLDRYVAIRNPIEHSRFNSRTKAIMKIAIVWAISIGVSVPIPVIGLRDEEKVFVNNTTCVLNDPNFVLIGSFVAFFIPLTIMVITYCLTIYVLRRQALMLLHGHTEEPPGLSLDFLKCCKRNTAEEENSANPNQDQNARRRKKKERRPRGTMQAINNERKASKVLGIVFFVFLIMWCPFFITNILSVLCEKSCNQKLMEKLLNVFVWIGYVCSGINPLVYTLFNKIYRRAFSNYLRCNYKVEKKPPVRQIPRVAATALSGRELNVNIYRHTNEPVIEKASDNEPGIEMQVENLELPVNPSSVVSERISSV
In words: biochemical. In kind it is binding.

Experiment [1] concerns C57BL/6 J mice. In words: Head-twitch response (HTR) dose-response in mice, 30-min session. In kind it is in vivo, mouse. The following applies: for HTR (count/30 min): mean ± SEM. The procedure:
(§1) Behavioral studies were conducted as previously described with minor modifications. Male C57BL/6 J mice (The Jackson Laboratory #000664, 24 mice/drug) were purchased at 8 weeks old, group housed for acclimation (3–5 per cage for 1–2 weeks) under a 12:12 light:dark cycle (07:00 local time = lights on), with ad libitum access to food and water at the NIDA IRP facilities in Baltimore, MD, USA. All experiments were approved by the NIDA IRP Animal Care and Use Committee. After acclimation to the vivarium facilities, each mouse was briefly anesthetized with isoflurane and a temperature transponder (14 × 2 mm, model IPTT-300, Bio Medic Data Systems, Inc., Seaford, DE, USA) was implanted subcutaneously (s.c.) on the back, posterior to the shoulder blades. After the implant, mice were single housed and allowed one week recovery prior to the start of experiments. […] Drugs were randomly assigned and administered s.c. as the weight of the form used at an injection volume of 0.01 mL/g body weight.
(§2) During experimental testing, mice were tested once every 1–2 weeks to avoid potential tolerance to behavioral effects of the test drugs and were tested 2–3 times in total per drug. Each test session began with a brief 5 min acclimation period to the testing arenas, followed by recording baseline body temperature using a handheld wand that was sensitive to the signals emitted from the s.c. transponder. After this, mice were injected s.c. with appropriate doses of test drug and returned to the chambers for a 30-min test session. During the dose-response sessions, locomotor activity was continuously recorded using open field chambers with photobeam arrays (Coulbourn Instruments, Holliston, MA, USA) that were modified with cylindrical inserts and custom floor panels that also allowed video recordings of each mouse to later quantify HTR activity (GoPro Hero 7 camera; 960p resolution at 120 frames per second). Videos for each mouse were analyzed post session using commercially available software used to quantify HTR as previously described.
(§3) Data analysis was performed with Prism software (version 10.1.2, GraphPad Software, Boston, MA, USA). The IC50 values from the radioligand binding assays were determined by nonlinear regression, using three independent concentration-response curves fitted to a one-site model. The Cheng-Prusoff equation was used to calculate Kᵢ values for the competing ligands. EC50 values were determined by applying nonlinear regression to concentration-response curves. Bias factors (β) were calculated based on the relative intrinsic activity approach. More detailed information can be found in the Supplementary information. Mean values for total number of HTR, change in body temperature from pre to post session (Δ°C), and total distance traveled (cm) for each drug dose were compared (p < 0.05) via Welch’s ANOVA with Dunnett’s T3 post test, comparing all doses to respective vehicle controls (0 mg/kg). Welch’s ANOVA with Dunnett’s T3 post test was also used to compare drug concentrations, but the data were compared to DOM in this case. Dose–response relationships for HTR and locomotor activities were plotted using bell-shaped curve fits, while temperature change data were plotted using four-parameter non-linear regression curve fits. The ascending phase of the HTR curve for each drug was used to determine ED50 potency values from four parameter non-linear regression fits. For combined DOM and DOAM administration, the plasma, brain tissue, and brain dialysate drug concentrations were compared using paired t-tests (p < 0.05). Ratios were compared using Holm-Sidak’s post hoc test following a repeated-measures one-way ANOVA (F (1.709, 6.835) = 70.80; p < 0.0001).
(§4) Locomotor activity and body temperature were also assessed to monitor other pharmacological effects of the drugs that may impact the HTR. […]

Experiment [2] has as its system C57BL/6 J mice. In words: HTR after single fixed doses prior to brain and blood collection (20 min). In kind it is in vivo, mouse. The following applies: single s.c. dose: DOM 3, DOPR 1, DOBU 3, DOAM 10, 2,5-DMA 10 mg/kg. The procedure: In these experiments, HTR activity was monitored for 20 min, followed by cardiac puncture and decapitation. Whole blood (~ 300–500 µL per sample) was collected via cardiac puncture, placed in tubes containing 10 µL of heparin (1000 IU/mL), and immediately stored on ice until centrifugation. Blood samples were spun at 3300 rpm at 4 °C and plasma was decanted into vials on dry ice until storage at -80 °C. Whole brains were collected immediately after cardiac puncture. Brains were frozen on dry ice, weighed, then placed into 7-mL homogenizing tubes with ceramic beads, and stored at -80 °C.
as §3, with “For combined DOM and DOAM administration, the plasma, brain tissue, and brain dialysate drug concentrations were compared using paired t-tests (p < 0.05). Ratios were compared using Holm-Sidak’s post hoc test following a repeated-measures one-way ANOVA (F (1.709, 6.835) = 70.80; p < 0.0001).” left out

In experiment [3] the test system is C57BL/6 J mice. In words: Locomotor activity in mice (dose-response sessions). In kind it is in vivo, mouse. The following applies: 30-min session, mean ± SEM. The procedure: as §1, §2, §3, §4

The structures appear in SMILES notation.

Sequence of h5-HT2A (P28223 whole entry, looked up): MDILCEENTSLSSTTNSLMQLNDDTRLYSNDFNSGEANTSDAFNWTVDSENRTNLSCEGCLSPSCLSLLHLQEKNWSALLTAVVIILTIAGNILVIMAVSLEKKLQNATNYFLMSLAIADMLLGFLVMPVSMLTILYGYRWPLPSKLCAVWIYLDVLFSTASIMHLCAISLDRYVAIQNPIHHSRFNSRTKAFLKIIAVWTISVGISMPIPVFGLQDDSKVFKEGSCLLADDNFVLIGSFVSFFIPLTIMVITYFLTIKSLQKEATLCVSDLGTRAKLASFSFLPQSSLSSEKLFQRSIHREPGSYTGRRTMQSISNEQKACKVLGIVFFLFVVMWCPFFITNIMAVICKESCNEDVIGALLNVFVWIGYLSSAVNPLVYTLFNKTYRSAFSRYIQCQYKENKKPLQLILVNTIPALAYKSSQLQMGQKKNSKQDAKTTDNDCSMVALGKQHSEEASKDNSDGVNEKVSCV

Regarding `CCCCc1cc(OC)c(CC(C)N)cc1OC` (centres unmarked) [DOBU, 4-butyl-2,5-dimethoxyamphetamine], the Ki on h5-HT2A is 0.0054 µM; on h5-HT2C it was 0.06 µM. Besides, the “Selectivity (binding ratios) 5-HT2A/5-HT1A” value on h5-HT2A (ratio of Ki values) came out at 2506. For the same compound, the “Selectivity (binding ratios) 5-HT2A/5-HT2B” value at h5-HT2A (ratio of Ki values) came out at 30. The “Selectivity (binding ratios) 5-HT2A/5-HT2C” value on h5-HT2A (ratio of Ki values) was 11. The “HTR (count/30 min)” value in the experiment with C57BL/6 J mice [1] (0.03 mg/kg s.c.) is recorded as 6.0 ± 0.9 count; in the experiment with C57BL/6 J mice [1] (0.1 mg/kg s.c.) it was 9.0 ± 1.7 count; in the experiment on C57BL/6 J mice [1] (0.3 mg/kg s.c.), 12.7 ± 1.3 count; with C57BL/6 J mice [1] (1 mg/kg s.c.), 40.2 ± 2.9 count; with C57BL/6 J mice [1] (3 mg/kg s.c.) it was 78.7 ± 6.2 count; with C57BL/6 J mice [1] (10 mg/kg s.c.) it was 69.3 ± 4.7 count. Moreover, the “HTR (count/30 min)” value in the experiment with C57BL/6 J mice [1] (30 mg/kg s.c.) was determined as 17.5 ± 4.5 count. In addition, the ED50 in the experiment with C57BL/6 J mice [1] (Mus musculus, sc, 0.5 h, read-out: HTR in mice ED50 (95% CI), s.c., 30 min session, ascending phase of dose-response curve) stood at 1.29 mg/kg. In the experiment with C57BL/6 J mice [1] (s.c., 30 min session), the “HTR in mice Emax” value is listed as 79 total HTR count. The “HTR in mice Maximum rate” value in the experiment with C57BL/6 J mice [1] (s.c., 30 min session) worked out at 16 HTR count/5 min. In the experiment with C57BL/6 J mice [2], this compound returned an HTR of 37 count/20 min. Further, the “Locomotor activity (distance traveled)” value was 2,386 ± 181 cm in the experiment on C57BL/6 J mice [3] (0.03 mg/kg s.c.); 2,342 ± 184 cm with C57BL/6 J mice [3] (0.1 mg/kg s.c.); 2,535 ± 61 cm with C57BL/6 J mice [3] (0.3 mg/kg s.c.); 3,030 ± 217 cm in the experiment with C57BL/6 J mice [3] (1 mg/kg s.c.); 3,348 ± 297 cm in the experiment on C57BL/6 J mice [3] (3 mg/kg s.c.); 1,167 ± 195 cm with C57BL/6 J mice [3] (10 mg/kg s.c.). Moreover, the “Locomotor activity (distance traveled)” value with C57BL/6 J mice [3] (30 mg/kg s.c.) amounted to 793 ± 154 cm.

The term Ki denotes a dissociation constant, usually derived from enzyme kinetics or from competition with a known ligand. One may read the ED50 as the dose at which the effect has come halfway, by size or by number of responders.
